According to PubChem BioAssay (NCI):
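GI50 marks 50% less growth. TGI marks complete inhibition of growth.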

Key:
Test in all cases: growth of human tumour cells (NCI), 384-well format
786-0 renal = test system: 786-0 renal
A498 renal = test system: A498 renal
A549 NSCLC = test system: A549 NSCLC
ACHN renal = test system: ACHN renal
BT-549 breast = test system: BT-549 breast
CAKI-1 renal = test system: CAKI-1 renal
CCRF-CEM leukemia = test system: CCRF-CEM leukemia
COLO 205 colon = test system: COLO 205 colon
DU-145 prostate = test system: DU-145 prostate
EKVX NSCLC = test system: EKVX NSCLC
HCC-2998 colon = test system: HCC-2998 colon
HCT-116 colon = test system: HCT-116 colon
HCT-15 colon = test system: HCT-15 colon
HL-60(TB) leukemia = test system: HL-60(TB) leukemia
HOP-62 NSCLC = test system: HOP-62 NSCLC
HOP-92 NSCLC = test system: HOP-92 NSCLC
HS 578T breast = test system: HS 578T breast
HT29 colon = test system: HT29 colon
IGROV1 ovarian = test system: IGROV1 ovarian
K-562 leukemia = test system: K-562 leukemia
KM12 colon = test system: KM12 colon
LOX IMVI melanoma = test system: LOX IMVI melanoma
M14 melanoma = test system: M14 melanoma
MALME-3M melanoma = test system: MALME-3M melanoma
MCF7 breast = test system: MCF7 breast
MDA-MB-231 breast = test system: MDA-MB-231 breast
MDA-MB-435 melanoma = test system: MDA-MB-435 melanoma
MDA-MB-468 breast = test system: MDA-MB-468 breast
MOLT-4 leukemia = test system: MOLT-4 leukemia
NCI-H226 lung = test system: NCI-H226 lung
NCI-H23 lung = test system: NCI-H23 lung
NCI-H322M lung = test system: NCI-H322M lung
NCI-H460 NSCLC = test system: NCI-H460 NSCLC
NCI-H522 lung = test system: NCI-H522 lung
NCI/ADR-RES ovarian = test system: NCI/ADR-RES ovarian
OVCAR-3 ovarian = test system: OVCAR-3 ovarian
OVCAR-4 ovarian = test system: OVCAR-4 ovarian
OVCAR-8 ovarian = test system: OVCAR-8 ovarian
PC-3 prostate = test system: PC-3 prostate
RPMI-8226 leukemia = test system: RPMI-8226 leukemia
RXF 393 renal = test system: RXF 393 renal
SF-268 CNS = test system: SF-268 CNS
SF-295 CNS = test system: SF-295 CNS
SF-539 CNS = test system: SF-539 CNS
SK-MEL-28 melanoma = test system: SK-MEL-28 melanoma
SK-MEL-5 melanoma = test system: SK-MEL-5 melanoma
SK-OV-3 ovarian = test system: SK-OV-3 ovarian
SN12C renal = test system: SN12C renal
SNB-19 CNS = test system: SNB-19 CNS
SNB-75 CNS = test system: SNB-75 CNS
SW-620 colon = test system: SW-620 colon
T-47D breast = test system: T-47D breast
TK-10 renal = test system: TK-10 renal
U251 glioblastoma = test system: U251 glioblastoma
UACC-257 melanoma = test system: UACC-257 melanoma
UACC-62 melanoma = test system: UACC-62 melanoma
UO-31 renal = test system: UO-31 renal

NC(=O)/C(=C/n1cnc(-c2cc(C(F)(F)F)cc(C(F)(F)F)c2)n1)c1cncnc1
GI50 ([…]-0 renal): 50.4 nM
TGI (786-0 renal): 1220 nM
GI50 (A498 renal): 42 nM
TGI (A498 renal): 232 nM
GI50 (A549 NSCLC): 196 nM
TGI (A549 NSCLC): 1640 nM
GI50 (ACHN renal): 329 nM
TGI (ACHN renal): 2670 nM
GI50 (BT-549 breast): 12.1 nM
TGI (BT-549 breast): 45.5 nM
GI50 (CAKI-1 renal): 22 nM
TGI (CAKI-1 renal): 1340 nM
GI50 (CCRF-CEM leukemia): 47.4 nM
TGI (CCRF-CEM leukemia): 188 nM
GI50 (COLO 205 colon): 44.1 nM
TGI (COLO 205 colon): 1740 nM
GI50 (DU-145 prostate): 235 nM
TGI (DU-145 prostate): 3940 nM
GI50 (EKVX NSCLC): 591 nM
TGI (EKVX NSCLC): 4140 nM
GI50 (HCC-2998 colon): 60.5 nM
TGI (HCC-2998 colon): 287 nM
GI50 (HCT-116 colon): 40.1 nM
TGI (HCT-116 colon): 232 nM
GI50 (HCT-15 colon): 92.7 nM
TGI (HCT-15 colon): 1180 nM
GI50 (HL-60(TB) leukemia): 15.3 nM
TGI (HL-60(TB) leukemia): 131 nM
GI50 (HOP-62 NSCLC): 229 nM
TGI (HOP-62 NSCLC): 995 nM
GI50 (HOP-92 NSCLC): 438 nM
TGI (HOP-92 NSCLC): 2060 nM
GI50 (HS 578T breast): 33 nM
TGI (HS 578T breast): 244 nM
GI50 (HT29 colon): 65.6 nM
TGI (HT29 colon): 943 nM
GI50 (IGROV1 ovarian): 296 nM
TGI (IGROV1 ovarian): 2130 nM
GI50 (K-562 leukemia): 37.2 nM
TGI (K-562 leukemia): 1030 nM
GI50 (KM12 colon): 191 nM
TGI (KM12 colon): 1930 nM
GI50 (LOX IMVI melanoma): 144 nM
TGI (LOX IMVI melanoma): 687 nM
GI50 (M14 melanoma): 146 nM
TGI (M14 melanoma): 485 nM
GI50 (MALME-3M melanoma): 32.2 nM
TGI (MALME-3M melanoma): 483 nM
GI50 (MCF7 breast): 47.8 nM
TGI (MCF7 breast): 10900 nM
GI50 (MDA-MB-231 breast): 29.5 nM
TGI (MDA-MB-231 breast): 253 nM
GI50 (MDA-MB-435 melanoma): 40.9 nM
TGI (MDA-MB-435 melanoma): 170 nM
GI50 (MDA-MB-468 breast): 73 nM
TGI (MDA-MB-468 breast): 247 nM
GI50 (MOLT-4 leukemia): 14.5 nM
TGI (MOLT-4 leukemia): 28.2 nM
GI50 (NCI-H226 lung): 31.6 nM
TGI (NCI-H226 lung): 400 nM
GI50 (NCI-H23 lung): 71.3 nM
TGI (NCI-H23 lung): 1120 nM
GI50 (NCI-H322M lung): 297 nM
TGI (NCI-H322M lung): 2900 nM
GI50 (NCI-H460 NSCLC): 29.6 nM
TGI (NCI-H460 NSCLC): 131 nM
GI50 (NCI-H522 lung): 24.9 nM
TGI (NCI-H522 lung): 184 nM
GI50 (NCI/ADR-RES ovarian): 222 nM
TGI (NCI/ADR-RES ovarian): 1680 nM
GI50 (OVCAR-3 ovarian): 28 nM
TGI (OVCAR-3 ovarian): 171 nM
GI50 (OVCAR-4 ovarian): 249 nM
TGI (OVCAR-4 ovarian): 780 nM
GI50 (OVCAR-8 ovarian): 37.8 nM
TGI (OVCAR-8 ovarian): 1050 nM
GI50 (PC-3 prostate): 26.1 nM
TGI (PC-3 prostate): 110 nM
TGI (RPMI-8226 leukemia): 24.1 nM
GI50 (RXF 393 renal): 24.4 nM
TGI (RXF 393 renal): 116 nM
GI50 (SF-268 CNS): 26.7 nM
TGI (SF-268 CNS): 95.3 nM
GI50 (SF-295 CNS): 327 nM
TGI (SF-295 CNS): 2690 nM
GI50 (SF-539 CNS): 27.5 nM
TGI (SF-539 CNS): 84 nM
GI50 (SK-MEL-28 melanoma): 106 nM
TGI (SK-MEL-28 melanoma): 372 nM
GI50 (SK-MEL-5 melanoma): 192 nM
TGI (SK-MEL-5 melanoma): 1190 nM
GI50 (SK-OV-3 ovarian): 92.2 nM
TGI (SK-OV-3 ovarian): 8970 nM
GI50 (SN12C renal): 598 nM
TGI (SN12C renal): 2260 nM
GI50 (SNB-19 CNS): 188 nM
TGI (SNB-19 CNS): 1880 nM
GI50 (SNB-75 CNS): 15.4 nM
TGI (SNB-75 CNS): 41.9 nM
GI50 (SW-620 colon): 41 nM
TGI (SW-620 colon): 1410 nM
GI50 (T-47D breast): 192 nM
TGI (T-47D breast): 1580 nM
GI50 (TK-10 renal): 47.5 nM
TGI (TK-10 renal): 1350 nM
GI50 (U251 glioblastoma): 120 nM
TGI (U251 glioblastoma): 785 nM
GI50 (UACC-257 melanoma): 591 nM
TGI (UACC-257 melanoma): 2120 nM
GI50 (UACC-62 melanoma): 57.2 nM
TGI (UACC-62 melanoma): 241 nM
GI50 (UO-31 renal): 269 nM
TGI (UO-31 renal): 1570 nM
